Assay results taken from ChEMBL document CHEMBL3045817, “Magnetic resonance assays of haloperidol in human serum albumin” (Med Chem Res, 2011).

Key:
[1] = target: Albumin (Homo sapiens, UniProt P02768); experiment: Binding affinity to Homo sapiens (human) serum albumin at 1.5 to 800 ug/ml by NMR analysis; assay type: ADME; conditions: isolated protein
[2] = tested on: Brain; experiment: Drug uptake in healthy Homo sapiens (human) brain by NMR analysis; assay type: ADME, tissue-based
[3] = Bioavailability in Homo sapiens (human) at 2.5 mg, intramuscular after 15 min; assay type: ADME, organism-based; conditions: in vivo, im
[4] = Plasma protein binding in Homo sapiens (human); assay type: ADME, cell-free; conditions: read-out: PPB (converted)
[5] = Bioavailability in Homo sapiens (human) at 2.5 mg, intranasal after 15 min; assay type: ADME, organism-based; conditions: in vivo, inhaled or intranasal
[6] = Drug uptake in depression pateint brain at 20 mg/day after 3 days by NMR analysis; assay type: ADME; conditions: human, read-out: Drug uptake

Chain of Albumin (P02768 whole entry): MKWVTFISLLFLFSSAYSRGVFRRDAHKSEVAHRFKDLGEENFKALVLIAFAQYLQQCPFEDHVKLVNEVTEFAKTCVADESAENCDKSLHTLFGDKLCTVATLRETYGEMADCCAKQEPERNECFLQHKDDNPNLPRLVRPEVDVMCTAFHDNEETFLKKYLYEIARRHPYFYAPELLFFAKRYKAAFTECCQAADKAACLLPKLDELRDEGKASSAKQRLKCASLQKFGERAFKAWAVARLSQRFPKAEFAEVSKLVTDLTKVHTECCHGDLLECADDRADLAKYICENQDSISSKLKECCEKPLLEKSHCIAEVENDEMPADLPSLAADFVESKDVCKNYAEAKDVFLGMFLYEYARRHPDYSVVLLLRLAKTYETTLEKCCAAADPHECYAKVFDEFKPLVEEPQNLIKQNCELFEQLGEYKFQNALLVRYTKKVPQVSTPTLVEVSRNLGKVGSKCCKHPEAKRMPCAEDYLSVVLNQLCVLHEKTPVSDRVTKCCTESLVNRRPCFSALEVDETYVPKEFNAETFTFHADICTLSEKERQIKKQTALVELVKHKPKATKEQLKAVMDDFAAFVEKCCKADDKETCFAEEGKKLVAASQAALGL

Compound: O=C(CCCN1CCC(O)(c2ccc(Cl)cc2)CC1)c1ccc([19F])cc1 [[19F]-HALOPERIDOL]
- Activity [1]: Active

Compound: CN1CCN(CCCN2c3ccccc3Sc3ccc(C(F)(F)F)cc32)CC1 [TRIFLUOPERAZINE]
- Drug uptake [2]: 4 µg/mL

Compound: O=C(CCCN1CCC(O)(c2ccc(Cl)cc2)CC1)c1ccc(F)cc1 [HALOPERIDOL]
- bioavailability [3]: 48.6%
- fraction unbound [4]: 0.1
- bioavailability [5]: 63.8%

Compound: OCCN1CCN(CCCN2c3ccccc3Sc3ccc(C(F)(F)F)cc32)CC1 [FLUPHENAZINE]
- Drug uptake [2]: 4 µg/mL

Compound: Fc1ccc([C@@H]2CCNC[C@H]2COc2ccc3c(c2)OCO3)cc1 [PAROXETINE]
- concentration at 72 h [6]: 6000 ng/mL
